Test results: US20070280915A1, “Combination Therapies Employing A Composition Comprising A Hmg Coa Reductase Inhibitor And A Vitamin B6 Related Compound” (priority 2003, published 2007)
Several values for one entry are separate records, joined by “and”; a condition that tells them apart may be missing. Equal entries are not always repeated. Where two headings read alike, the source gives them in different places.

Columns and labels:
CYP2B6 = target: T1, CYP2B6 (Homo sapiens, UniProt P20813); assay: CYP2B6 inhibition assay (substrate EFC)
T1 sequence (P20813 1-491): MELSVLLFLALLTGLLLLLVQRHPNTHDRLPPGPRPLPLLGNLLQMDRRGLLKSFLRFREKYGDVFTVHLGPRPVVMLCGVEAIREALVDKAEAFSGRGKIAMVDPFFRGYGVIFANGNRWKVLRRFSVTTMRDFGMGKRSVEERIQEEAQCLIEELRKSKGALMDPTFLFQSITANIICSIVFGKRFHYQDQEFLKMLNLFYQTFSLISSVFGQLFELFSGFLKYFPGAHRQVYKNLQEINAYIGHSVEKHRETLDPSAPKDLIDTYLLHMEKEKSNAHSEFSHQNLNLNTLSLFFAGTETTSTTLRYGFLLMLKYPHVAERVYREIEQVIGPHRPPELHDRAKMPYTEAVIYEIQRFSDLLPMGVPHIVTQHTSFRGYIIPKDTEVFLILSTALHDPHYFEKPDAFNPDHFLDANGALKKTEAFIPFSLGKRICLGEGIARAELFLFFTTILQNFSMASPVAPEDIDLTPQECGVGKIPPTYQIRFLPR
Excerpt: (§1) The CYP inhibition assays used microsomes (Supersomes®, Gentest Corp., Woburn, Mass.) prepared from insect cells, each expressing an individual CYP subtype (CYP1A2, CYP2A6, CYP2B6, CYP2C8, CYP2C9, CYP2C19, CYP2D6, CYP2E1 or CYP3A4) expressed from the corresponding human CYP cDNA using a baculovirus expression vector. The microsomes also incorporated supplemental cDNA-expressed human reductase and/or cytochrome b5, as these enzymes stimulate the activity of the CYPs, allowing for a reduction in the amount of enzyme required per reaction (Gentest Corp.). The assays monitored, via fluorescence detection, the formation of a fluorescent metabolite following incubation of the microsomes with a specific CYP substrate. […] Reactions (0.2 mL) were performed in 96-well microtitre plates at 37° C. in the presence of an NADPH regenerating system [NADP+, glucose-6-phosphate (G6P), glucose-6-phosphate dehydrogenase (G6PDH)] and MgCl2. […] All determinations were performed in duplicate. The reagent solutions used for all of the CYP subtype assays, except CYP2C19 and CYP3A4, were prepared by MBDI. For CYP2C19 and CYP3A4, complete reagent kits purchased from Gentest Corp. (CYP2C19/CEC: Cat. No. HTS-4000, Lot No. 1; CYP3A4/BFC: Cat. No. HTS-1000, Lot No. 1) were used to perform the assays.
(§2) Eight inhibitor and test compound concentrations were tested using 3-fold serial dilutions. The microtitre plates containing 0.1 mL/well of the latter mixture were pre-warmed to 37° C. in an incubator. […] The amount of metabolic product formed was quantified by fluorescence detection in a fluorescence plate reader utilizing excitation and emission filters that had been optimized for the detection of each metabolite.
(§3) Data Analysis—The mean of the duplicate fluorescent signals in the presence and absence (vehicle control) of each compound was calculated and corrected for the background noise. Percent inhibition was calculated as the difference in the corrected fluorescent signals in the absence and presence of the compound, divided by the corrected fluorescent signal in the absence of compound, multiplied by 100%.

CYP2A6 = target: T2, CYP2A6 (Homo sapiens, UniProt P11509); assay: CYP2A6 inhibition assay (substrate coumarin)
T2 sequence (P11509 1-494): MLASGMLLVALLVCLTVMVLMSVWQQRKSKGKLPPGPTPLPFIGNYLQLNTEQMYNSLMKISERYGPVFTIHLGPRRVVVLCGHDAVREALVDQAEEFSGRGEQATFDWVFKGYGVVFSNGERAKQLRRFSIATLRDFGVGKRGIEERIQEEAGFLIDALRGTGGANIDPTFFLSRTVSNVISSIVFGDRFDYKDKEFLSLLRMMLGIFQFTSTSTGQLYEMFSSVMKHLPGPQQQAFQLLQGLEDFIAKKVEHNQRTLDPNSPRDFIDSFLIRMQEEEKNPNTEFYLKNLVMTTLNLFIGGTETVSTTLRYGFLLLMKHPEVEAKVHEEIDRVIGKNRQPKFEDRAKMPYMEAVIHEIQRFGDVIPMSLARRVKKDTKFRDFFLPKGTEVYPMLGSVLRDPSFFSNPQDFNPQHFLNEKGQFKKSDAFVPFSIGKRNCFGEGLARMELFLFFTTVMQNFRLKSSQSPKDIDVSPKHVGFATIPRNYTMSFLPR
Excerpt: as §1, §2, §3

CYP2E1 = target: T3, CYP2E1 (Homo sapiens, UniProt P05181); assay: CYP2E1 inhibition assay (substrate MFC); assay type: in vitro ADME
T3 construct: purchased Gentest Corp; host or cells: insect cells (baculovirus)
Experimental: All determinations were performed in duplicate.

[1] = system: patients with mild to moderate hypertension, hyperlipidemia and diabetes mellitus; assay: 14-week open-label forced dose-escalation study of P5P in hypertensive diabetics (concomitant statin); assay type: in vivo, human; details: individual patient; for Chol:HDL ratio V.1 / HDL cholesterol V.1 / LDL cholesterol V.1 / Total cholesterol V.1 / Triglycerides V.1: V1: 1st visit, Week One, Day 1, on statin; for Triglycerides V.12 / Chol:HDL ratio V.12 / HDL cholesterol V.12 / LDL cholesterol V.12 / Total cholesterol V.12: V12: Last Visit, Week 14, Day 98; for Triglycerides V.12: concomitant P5P (250 to 750 mg once daily) and statin; for Chol:HDL ratio V.12 / HDL cholesterol V.12 / LDL cholesterol V.12 / Total cholesterol V.12: concomitant P5P and statin
Excerpt: Patient Definition-Patients meeting all of the inclusion criteria and none of the exclusion criteria were eligible for enrollment. The primary inclusion criteria were hypertension and diabetes. At screening all patients must present with or have a history of, uncomplicated, stable, mild to moderate hypertension, (supine diastolic blood pressure SUDBP ≧90 and ≦114 mm Hg) regardless of use or non-use of treatment for this disease. […] The hypertensive patients must present with and have a history (>24 months) of diabetes mellitus (type 1 or 2), that is controlled or uncontrolled, at both screening and treatment initiation visits, to be eligible for inclusion in the study. Other than having diabetes and hypertension, patients must be in good health for their age. A history and physical examination must be within age-related normal limits, or if abnormal, considered clinically insignificant in the opinion of the investigator. Laboratory tests (CBC with differential, prothrombin and partial thrombo-plastin times, platelet count, and urinalysis and blood chemistry panel), must be normal, or if abnormal, considered clinically insignificant. Patients must have a normal ECG or, if abnormal, considered clinically insignificant. […] Essentially, all patients complete a fixed four-week placebo lead-in, to qualify for initiation of active treatment. Eligible patients then begin treatment with 250 mg/day of […]. This dose was administered orally on a daily basis for the next two (2) weeks, subject to dose-limiting side-effects, after which patients are force-titrated to 500 mg/day of […]. […] Thereafter, and for the final four (4) weeks of the study all patients were treated with placebo medication. […] Patients who were on anti-lipid medication prior to the initiation of the study continued their anti-lipid regime throughout the study. Primary Efficacy Evaluations • Supine diastolic blood pressure (SUDBP) measured at specified intervals; • Triglyceride, total cholesterol, LDL cholesterol, and HDL levels measured at specified intervals. […] Dosage Regimens-All patients receive treatment medication once daily, in the morning one hour before breakfast. At each dosing, the prescribed number of tablets will be taken orally, with water, to allow for the following dosing levels: The first dose of study medication is administered at clinic under the supervision of clinic personnel. Patients previously on anti-lipid therapy continued their anti-lipid regime unchanged throughout the study.

[2] = read-out: Expected Inhibitor IC50, value expected from assay validation (mean ± S.D., n ≧ 8 experiments)
[3] = read-out: Observed Inhibitor IC50

T3 sequence (P05181 whole entry): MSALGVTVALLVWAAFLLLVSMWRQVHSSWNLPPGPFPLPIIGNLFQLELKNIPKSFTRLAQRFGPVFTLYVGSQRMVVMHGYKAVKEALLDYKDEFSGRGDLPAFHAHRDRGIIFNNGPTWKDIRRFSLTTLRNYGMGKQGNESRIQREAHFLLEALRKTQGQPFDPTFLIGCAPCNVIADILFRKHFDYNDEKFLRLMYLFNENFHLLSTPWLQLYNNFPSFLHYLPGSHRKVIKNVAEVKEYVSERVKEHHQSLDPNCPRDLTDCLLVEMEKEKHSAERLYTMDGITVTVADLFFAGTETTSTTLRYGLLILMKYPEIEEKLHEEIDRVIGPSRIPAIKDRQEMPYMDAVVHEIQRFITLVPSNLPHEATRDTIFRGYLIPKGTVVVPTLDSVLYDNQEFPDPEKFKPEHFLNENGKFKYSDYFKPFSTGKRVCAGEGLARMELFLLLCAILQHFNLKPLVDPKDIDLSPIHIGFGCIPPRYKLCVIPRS

N[C@@H]1C[C@H]1c1ccccc1 (racemic) [Tranylcypromine]
IC50 (CYP2B6; [2]): 8.82 ± 2.43 µM | IC50 (CYP2B6; [3]): 6.59 µM | IC50 (CYP2A6; [2]): 0.99 ± 0.209 µM | IC50 (CYP2A6; [3]): 0.605 µM

CCN(CC)C(=S)S [DDTC, Diethyldithiocarbamic acid]
IC50 (CYP2E1; [3]): 3.56 µM | IC50 (CYP2E1; value expected from assay validation (mean ± S.D., n ≧ 8 experiments), read-out: Expected Inhibitor IC50): 5.06 ± 1.96 µM

CC(C)c1c(C(=O)Nc2ccccc2)c(-c2ccccc2)c(-c2ccc(F)cc2)n1CC[C@@H](O)C[C@@H](O)CC(=O)O [Lipitor, atorvastatin]
Chol:HDL ratio V.1 [1]: 5.0 and 2.2 | HDL cholesterol V.1 [1]: 43 mg/dL and 62 mg/dL | LDL cholesterol V.1 [1]: 123 mg/dL and 55 mg/dL | Total cholesterol V.1 [1]: 217 mg/dL and 136 mg/dL | Triglycerides V.1 [1]: 255 mg/dL and 96 mg/dL | Triglycerides V.12 [1]: 179 mg/dL and 106 mg/dL | Chol:HDL ratio V.12 [1]: 5.6 and 2.1 | HDL cholesterol V.12 [1]: 48 mg/dL and 75 mg/dL | LDL cholesterol V.12 [1]: 183 mg/dL and 63 mg/dL | Total cholesterol V.12 [1]: 267 mg/dL and 159 mg/dL

CC[C@H](C)C(=O)O[C@H]1C[C@H](O)C=C2C=C[C@H](C)[C@H](CC[C@@H](O)C[C@@H](O)CC(=O)O)[C@H]21 [Pravachol, pravastatin]
Chol:HDL ratio V.1 [1]: 9.5 | HDL cholesterol V.1 [1]: 33 mg/dL | Total cholesterol V.1 [1]: 313 mg/dL | Triglycerides V.1 [1]: 667 mg/dL | Triglycerides V.12 [1]: 365 mg/dL | Chol:HDL ratio V.12 [1]: 8.4 | HDL cholesterol V.12 [1]: 29 mg/dL | Total cholesterol V.12 [1]: 243 mg/dL

CCC(C)(C)C(=O)O[C@H]1C[C@@H](C)C=C2C=C[C@H](C)[C@H](CC[C@@H]3C[C@@H](O)CC(=O)O3)[C@H]21 [Zocor, simvastatin]
Chol:HDL ratio V.1 [1]: 3.9 and 6.3 | HDL cholesterol V.1 [1]: 39 mg/dL and 43 mg/dL | LDL cholesterol V.1 [1]: 80 mg/dL and 185 mg/dL | Total cholesterol V.1 [1]: 152 mg/dL and 272 mg/dL | Triglycerides V.1 [1]: 164 mg/dL and 222 mg/dL | Triglycerides V.12 [1]: 212 mg/dL and 187 mg/dL | Chol:HDL ratio V.12 [1]: 4.1 and 5.8 | HDL cholesterol V.12 [1]: 35 mg/dL and 40 mg/dL | LDL cholesterol V.12 [1]: 68 mg/dL and 153 mg/dL | Total cholesterol V.12 [1]: 145 mg/dL and 230 mg/dL
